Legend:
[1] = system: inflammatory responses elicited by topically applied phorbol myristate acetate (PMA) or topically applied archidonic acid (AA) in mouse ear; assay: Topical mouse ear assay (TME); format: in vivo, mice
Procedure: The topical mouse ear assay (TME) was used to evaluate the novel compounds of the present invention for its effect on inflammatory responses elicited by topically applied phorbol myristate acetate (PMA) or topically applied archidonic acid (AA).
TABLE I Topical Mouse Ear Assay
Method: The right ears of mice (5 mice per group) were treated topically with either […] or 1000 μg AA alone or with the test compound in 25 μl of vehicle. The vehicle was water/pyridine/acetone (1:2:97). A control group of mice received the vehicle only. The mice were allowed food and water ad libitum during the treatment period; 2 hours for AA and 4 hours for PMA. The mice were sacrificed by cervical dislocation and a 6 mm diameter disc of tissue punched from both the treated and untreated ears. The tissue biopsies were immediately weighed and the weight increase of the treated ear relative to the weight of the untreated ear determined.
At the termination of the experiment, the amount of radioactivity in both the treated and untreated ear biopsies was determined and the increased amount of radioactivity in the treated tissue relative to the amount of radioactive in the untreated tissue determined.
As a measure of PMN infiltration, the amount of myeloperoxidase (MPO) activity in the same tissues was determined. The tissue biopsies were homogenized into 1 ml 0.5% hexadecyltrimethylammonium bromide and centrifuged for 45 min. at 1200×g. Aliquots 40 μl, of the supernatant phases were assayed for MPO activity by a colorimetric method devised by H. Dougherty for automated Titertek analysis. The MPO activity is expressed as the OD450 of the treated ear homogenate minus the OD450 of the non-treated ear homogenate.
All of the data are expressed as the mean±SEM, N=5 mice/group.

[2] = system: inflammatory responses elicited by topically applied phorbol myristate acetate (PMA) or topically applied archidonic acid (AA) in mouse ear; conditions: previously established, in words; cited from earlier work

## OCc1ccccc1/C=C/Cc1cc2c(cc1O)CCO2 [A, 5-hydroxy-6-(2-hydroxymethylcinnamyl)-2,3-dihydrobenzofuran]
[1]; dosage 50 μg
  Edema (% inhibition): 37%
[1]; dosage 150 μg
  Edema (% inhibition): 54%
[1]; dosage 300 μg
  Edema (% inhibition): 88%

## C[C@@H]1C[C@H]2[C@@H]3CCC4=CC(=O)C=C[C@]4(C)[C@@]3(F)[C@@H](O)C[C@]2(C)[C@@]1(O)C(=O)CO [Dexamethasone]
[1]; dosage 5 μg
  Edema (% inhibition): 60%
[2]
  activity in the topical mouse ear assay: active

## COc1ccc2c(c1)c(CC(=O)O)c(C)n2C(=O)c1ccc(Cl)cc1 [Indomethacin]
[1]; dosage 150 μg
  Edema (% inhibition): 51%
[2]
  activity in the topical mouse ear assay: active

Source: patent US4778818A, “Substituted 2-(heteroaryl-2-propenyl)phenols useful as anti-inflammatory agents” (Merck & Co., Inc., priority 1987, dated 1988)
